According to patent US20250170098A1, “MOLECULAR JACKHAMMER FOR MECHANICAL DESTRUCTION OF CELLULAR STRUCTURE” (William Marsh Rice University, priority 2022, published 2025):

What was measured:
A375 cells = assay: Crystal violet cell viability assay; assay type: cell-based, human; settings: 2 μM; 10 min 730 nm light at 80 mW/cm^2
Procedure: Crystal violet cell viability assay. The crystal violet assay was used to measures the cell viability. The principle of this method is that the viable cells adhere to the surface of the cell culture dish and keep growing and remain attached through the standard cell culture conditions during a period of 1-2 days and through the staining conditions in the assay. […] For specific details, A375 cells were harvested and counted, and then 20,000 A375 cells per well were added in 24 cell culture well plate (Corning) and cultured for 1 day at standard incubation conditions of 37° C. and 5% CO2. The cells were treated in four experimental groups (4 samples per group): group 1) 0.1% DMSO, group 2) 0.1% DMSO+NIR light treatment, group 3) 2 μM Cy7.5-amine, and group 4) 2 μM Cy7.5-amine+NIR light. The treatments with 0.1% DMSO or 2 μM Cy7.5-amine were done by adding those respective concentrations to the cells in the media and then incubated for 60 min. Immediately after the incubation, the cells in the groups with “+NIR light”, were treated with 730 nm light at 80 mW/cm^2 for 10 min. After the treatment with NIR light, the media in all the groups was removed and fresh media was added. […] Then the crystal violet was quantified by its absorbance at 570 nm. The cell viability was calculated from the absorbance relative to the absorbance in the cells without any treatment. […]

[1] = system: A375 human melanoma tumors; assay: Treatment of A375 human melanoma tumors in nude mice; assay type: in vivo, mouse
Procedure: Preparation of fresh solution of 200 μM Cy7.5-amine and 2.5% DMSO for in vivo studies. In the day of treatment, fresh solution of 200 μM Cy7.5-amine was prepared by diluting in PBS buffer the 8 mM Cy7.5-amine stock in DMSO, the final dilution contained 2.5% DMSO. As control 2.5% DMSO in PBS buffer was used.
Injection of A375 cells subcutaneously in athymic nude mice to generate the human melanoma tumor model. The A375 cells were culture as described before. Cells were harvested from sub-confluent plates, ˜90%, and fresh media was added to the cells the day before harvesting. The cells were harvested using 0.05% trypsin-EDTA (Gibco, 25-300-054). The harvested cells were re-dispersed in DMEM media without supplements at 50×10^6 cells mL^−1. The cell suspension was kept in ice. Then 100 μL of cells were injected per mouse (this was 5 million of cells per mouse) subcutaneously in the right flank of 7-8 weeks old female athymic nude mouse. Starting at day 2 the tumors were measured using a caliper. The typical volume of the tumors at day 2 was ˜33 mm^3. The volume of the tumor was calculated as: (½)×length×width×height. When the height was not possible to measure in the case of the tumors that were too small (usually <100 mm^3), then the tumor volume was calculated as: (½)×length×width^2.
Treatment of A375 tumors with Cy7.5-amine and NIR 730 nm light. The tumors were treated at day 3 (since 5 million initial cells were injected per tumor site) when the average tumors size was 35 mm^3. Forty mice were divided in 4 groups (number of mice per group, n=10): 1) Cy7.5-amine only 2) 2.5% DMSO only, 3) 2.5% DMSO+Light and 3) Cy7.5-amine+light. The day of treatment, fresh solutions (200 μM of Cy7.5-amine in PBS and controls 2.5% DMSO in PBS) were prepared as described before. The mice were anesthetized with isoflurane using a vaporizer. Then, each mouse was injected with 50 μL of 200 μM Cy7.5-amine solution in PBS or 2.5% DMSO, intratumorally. Then mice were kept for 25 min in the cages to let the Cy7.5-amine solution or DMSO solution interact with the tumors. Then, after the 25 min of incubation, the mice were treated (under anesthesia, using isoflurane) with 730 nm LED light source from Prizmatix applying a power intensity of 150 mWcm^−2 for 5 min (other power intensities were 210 mWcm^−2 for 5 min and 300 mWcm^−2 for 5 min as described in the treatment schedule in FIG. 27F). The light intensity was measured using an Optical Power Meter from Thorlabs, sensor model S302C and console model PM100D. When the treatment was finished the mice were put back into the cages and housed in the animal facility. The tumors sizes were measured every other day using a caliper in the first 20 days of the study and then in the late stage of the study twice a week.

**Q.** With `CN1/C(=C\C=C2C=C(/C=C/C3=[N+](CCCCCC(=O)NCCCCCCN)c4ccc5ccccc5c4C3(C)C)CCC\2)C(C)(C)c2c1ccc1ccccc21` [Cy7.5-amine] as the compound, how does the “dead cells by crystal violet assay” value (A375 cells) read?
**A.** 99.9%

**Q.** And the mice tumor free ([1]; 8 μg intratumoral + light (300 mWcm^−2 of 730 nm LED for 5 min))?
**A.** 50%

**Q.** And the “survival rate of mice with A375 tumors” value ([1]; 8 μg intratumoral + light (300 mWcm^−2 of 730 nm LED for 5 min), day 120)?
**A.** 60%

**Q.** And the “effect on size of A375 tumors” value ([1]; 150-215 mWCm^−2)?
**A.** mild therapeutic effect

**Q.** And the “effect on size of A375 tumors” value ([1]; 300 mWCm^−2)?
**A.** strong effect on the regression of the tumor size

**Q.** And the “survival of mice with A375 tumors” value ([1]; Cy7.5-amine group without light)?
**A.** 20%
